Data: ChEMBL document CHEMBL1156784, “The permeation of amphoteric drugs through artificial membranes--an in combo absorption model based on paracellular and transmembrane permeability” (J Med Chem, 2010)
One block for each compound: values may come before it.

Tests used:
[1] = Permeability at pH 6.5 by PAMPA method
[2] = species on record: Homo sapiens; test: Clearance in human assessed as liver blood flow; format: ADME, organism-based; details: in vivo
[3] = Oral bioavailability in human; details: in vivo
[4] = Octanol-water partition coefficient, log P of the compound

Structure (SMILES): N[C@@H](Cc1ccc(N(CCCl)CCCl)cc1)C(=O)O
Papp [1]: 84 ×10⁻⁶ cm/s | LBF [2]: 30%

Structure (SMILES): Nc1nc2c(ncn2COCCO)c(=O)[nH]1 [ACYCLOVIR]
Papp [1]: 0.8 ×10⁻⁶ cm/s

Structure (SMILES): CC(C)(O/N=C(\C(=O)N[C@@H]1C(=O)N2C(C(=O)[O-])=C(C[n+]3ccccc3)CS[C@H]12)c1csc(N)n1)C(=O)O [CEFTAZIDIME]
Papp [1]: 0.2 ×10⁻⁶ cm/s | bioavailability [3]: 0%

Structure (SMILES): COCc1c(C(C)C)nc(C(C)C)c(/C=C/[C@@H](O)C[C@@H](O)CC(=O)O)c1-c1ccc(F)cc1 [CERIVASTATIN]
bioavailability [3]: 60% | LBF [2]: 10%

Structure (SMILES): CN(C)[C@@H]1C(O)=C(C(N)=O)C(=O)[C@@]2(O)C(O)=C3C(=O)c4c(O)ccc(Cl)c4[C@@H](O)[C@H]3C[C@@H]12 [DEMECLOCYCLINE]
Papp [1]: 3.8 ×10⁻⁶ cm/s | bioavailability [3]: 66%

Structure (SMILES): C[C@H]1c2cccc(O)c2C(=O)C2=C(O)[C@]3(O)C(=O)C(C(N)=O)=C(O)[C@@H](N(C)C)[C@@H]3[C@@H](O)[C@@H]21.O [DOXYCYCLINE]
Papp [1]: 20 ×10⁻⁶ cm/s

Structure (SMILES): NC(N)=Nc1nc(CSCCC(N)=NS(N)(=O)=O)cs1 [FAMOTIDINE]
Papp [1]: 0.6 ×10⁻⁶ cm/s | bioavailability [3]: 42% | LBF [2]: 16%

Structure (SMILES): Nc1nc(O)c2ncn(COC(CO)CO)c2n1 [GANCICLOVIR]
bioavailability [3]: 7.3%

Structure (SMILES): C[N+](C)(C)C[C@H](O)CC(=O)[O-] [LEVOCARNITINE]
Papp [1]: 1.3 ×10⁻⁶ cm/s | bioavailability [3]: 10%

Structure (SMILES): NCCCC[C@H](N[C@@H](CCc1ccccc1)C(=O)O)C(=O)N1CCC[C@H]1C(=O)O [LISINOPRIL ANHYDROUS]
bioavailability [3]: 25%

Structure (SMILES): CN(C)c1ccc(O)c2c1C[C@H]1C[C@H]3[C@H](N(C)C)C(O)=C(C(N)=O)C(=O)[C@@]3(O)C(O)=C1C2=O [MINOCYCLINE]
Papp [1]: 50 ×10⁻⁶ cm/s | bioavailability [3]: 100%

Structure (SMILES): CN1C(C(=O)Nc2ccccn2)=C(O)c2ccccc2S1(=O)=O [PIROXICAM]
Papp [1]: 20 ×10⁻⁶ cm/s

Structure (SMILES): Nc1ccc(S(=O)(=O)Nc2ncccn2)cc1 [SULFADIAZINE]
Papp [1]: 1.2 ×10⁻⁶ cm/s | bioavailability [3]: 100% | logP [4]: -0.08

Structure (SMILES): CC(C)(C)NCC(O)c1cc(O)cc(O)c1 (stereo unspecified) [TERBUTALINE]
Papp [1]: 1.4 ×10⁻⁶ cm/s | bioavailability [3]: 14%

Structure (SMILES): Cc1cccc(Nc2ccncc2S(=O)(=O)NC(=O)NC(C)C)c1 [TORSEMIDE]
Papp [1]: 22 ×10⁻⁶ cm/s | bioavailability [3]: 80%

Further lines, results first:

Papp [1]: 0.9 ×10⁻⁶ cm/s | bioavailability [3]: 10%
Structure (SMILES): CC1(C)S[C@@H]2[C@H](/N=C/N3CCCCCC3)C(=O)N2[C@H]1C(=O)O [AMDINOCILLIN]

Papp [1]: 17 ×10⁻⁶ cm/s | bioavailability [3]: 37%
Structure (SMILES): CCOC(=O)[C@H](CCc1ccccc1)N[C@H]1CCc2ccccc2N(CC(=O)O)C1=O [BENAZEPRIL]

Papp [1]: 3.7 ×10⁻⁶ cm/s | bioavailability [3]: 60%
Structure (SMILES): CN(C)[C@@H]1C(O)=C(C(N)=O)C(=O)[C@@]2(O)C(O)=C3C(=O)c4c(O)ccc(Cl)c4[C@@](C)(O)[C@H]3C[C@@H]12 [CHLORTETRACYCLINE]

Papp [1]: 0.3 ×10⁻⁶ cm/s | bioavailability [3]: 0%
Structure (SMILES): COc1cccc2c1C(=O)c1c(O)c3c(c(O)c1C2=O)C[C@@](O)(C(C)=O)C[C@@H]3O[C@H]1C[C@H](N)[C@H](O)[C@H](C)O1 [DAUNORUBICIN]

Papp [1]: 7.7 ×10⁻⁶ cm/s | bioavailability [3]: 89%
Structure (SMILES): CCn1cc(C(=O)O)c(=O)c2cc(F)c(N3CCNCC3)nc21 [ENOXACIN]

Papp [1]: 20 ×10⁻⁶ cm/s
Structure (SMILES): COc1c(N2CCNC(C)C2)c(F)cc2c(=O)c(C(=O)O)cn(C3CC3)c12 (stereo unspecified) [GATIFLOXACIN]

permeability [1]: 15 ×10⁻⁶ cm/s | bioavailability [3]: 97%
Structure (SMILES): CCn1cc(C(=O)O)c(=O)c2cc(F)c(N3CCNC(C)C3)c(F)c21 (stereo unspecified) [LOMEFLOXACIN]

bioavailability [3]: 89%
Structure (SMILES): Cc1cnc(NC(=O)C2=C(O)c3ccccc3S(=O)(=O)N2C)s1 [MELOXICAM]

Papp [1]: 0.9 ×10⁻⁶ cm/s | bioavailability [3]: 28%
Structure (SMILES): Nc1ccc(O)c(C(=O)O)c1 [MESALAMINE]

bioavailability [3]: 90%
Structure (SMILES): CC1COc2c(N3CCN(C)CC3)c(F)cc3c(=O)c(C(=O)O)cn1c23 (stereo unspecified) [OFLOXACIN]

bioavailability [3]: 95%
Structure (SMILES): CCn1cc(C(=O)O)c(=O)c2cc(F)c(N3CCN(C)CC3)cc21 [PEFLOXACIN]

Papp [1]: 42 ×10⁻⁶ cm/s | bioavailability [3]: 92%
Structure (SMILES): C[C@@H]1CN(c2c(F)c(N)c3c(=O)c(C(=O)O)cn(C4CC4)c3c2F)C[C@H](C)N1 [SPARFLOXACIN]

Papp [1]: 3.8 ×10⁻⁶ cm/s | bioavailability [3]: 78%
Structure (SMILES): CN(C)[C@@H]1C(O)=C(C(N)=O)C(=O)[C@@]2(O)C(O)=C3C(=O)c4c(O)cccc4[C@@](C)(O)[C@H]3C[C@@H]12 [TETRACYCLINE]

Papp [1]: 57 ×10⁻⁶ cm/s | bioavailability [3]: 88%
Structure (SMILES): N[C@@H]1[C@H]2CN(c3nc4c(cc3F)c(=O)c(C(=O)O)cn4-c3ccc(F)cc3F)C[C@@H]12 [TROVAFLOXACIN]
